Experiments:
[1] = tested on: LAMPU (Lamium purpureum, purple deadnettle); test: Postemergence herbicidal activity of mixtures in cereal crops, greenhouse; assay type: in vivo, Lamium purpureum L.
Procedure: Seeds of the desired test plant species were planted in Sun Gro MetroMix® 306 planting mixture, which typically has a pH of 6.0 to 6.8 and an organic matter content of about 30 percent, in plastic pots with a surface area of 103.2 square centimeters (cm^2). When required to ensure good germination and healthy plants, a fungicide treatment and/or other chemical or physical treatment was applied. The plants were grown for 7-36 days in a greenhouse with an approximate 14 hour photoperiod which was maintained at about 18° C. during the day and about 17° C. during the night. Nutrients and water were added on a regular basis and supplemental lighting was provided with overhead metal halide 1000-Watt lamps as necessary. The plants were employed for testing when they reached the second or third true leaf stage.
Treatments consisted of the benzyl ester of 4-amino-3-chloro-5-fluoro-6-(4-chloro-2-fluoro-3-methoxy-phenyl)pyridine-2-carboxylic acid (Compound A), formulated as an SC, a second cereal herbicide alone and then both in combination.
Other herbicidal components were applied on an active ingredient basis and included PSII-inhibiting herbicides.
Measured aliquots of benzyl ester of 4-amino-3-chloro-5-fluoro-6-(4-chloro-2-fluoro-3-methoxy-phenyl)pyridine-2-carboxylic acid (Compound A) were placed in 25 milliliter (mL) glass vials and diluted in a volume of 1.25% (v/v) Agri-Dex® crop oil concentrate to obtain stock solutions. Compound requirements are based upon a 12 mL application volume at a rate of 187 liters per hectare (L/ha). Spray solutions of the second cereal herbicide and experimental compound mixtures were prepared by adding the stock solutions to the appropriate amount of dilution solution to form 12 mL spray solution with active ingredients in two- and three-way combinations. Formulated compounds were applied to the plant material with an overhead Mandel track sprayer equipped with an 8002E nozzle calibrated to deliver 187 L/ha over an application area of 0.503 square meters (m^2) at a spray height of 18 inches (46 cm) above average plant canopy. Control plants were sprayed in the same manner with the solvent blank.
The treated plants and control plants were placed in a greenhouse as described above and watered by sub-irrigation to prevent wash-off of the test compounds. After 20-22 days, the condition of the test plants as compared with that of the control plants was determined visually and scored on a scale of 0 to 100 percent where 0 corresponds to no injury and 100 corresponds to complete kill.
Colby's equation was used to determine the herbicidal effects expected from the mixtures (Colby, S. R. 1967. Calculation of the synergistic and antagonistic response of herbicide combinations. Weeds 15:20-22).
The following equation was used to calculate the expected activity of mixtures containing two active ingredients, A and B: Expected=A+B−(A×B/100)

[2] = tested on: BRAPP (Brachiaria platyphylla, broadleaf signalgrass); test: Pre-emergence soil-applied mixtures, greenhouse; assay type: in vivo, Brachiaria platyphylla (Groseb.) Nash
Text: Seeds or nutlets of the desired test plant species were planted in a soil matrix prepared by mixing a loam soil (32 percent silt, 23 percent clay, and 45 percent sand, with a pH of about 6.5 and an organic matter content of about 1.9 percent) and calcareous grit in an 80 to 20 ratio. The soil matrix was contained in plastic pots with a volume of 1 quart and a surface area of 83.6 square centimeters (cm^2).
Treatments consisted of the benzyl ester of 4-amino-3-chloro-5-fluoro-6-(4-chloro-2-fluoro-3-methoxy-phenyl)pyridine-2-carboxylic acid (compound A) formulated as an SC (suspension concentrate) and various herbicidal components alone and in combination. Forms of compound A were applied on an acid equivalent basis.
Other herbicidal components were applied on an acid equivalent or active ingredient basis and included the PSII-inhibiting herbicides, atrazine formulated as Atrazine® 90WDG, metribuzin formulated as Metribuzin 75DF, simazine formulated as Princep Caliber 90, tebuthiuron formulated as Spike 80DF, cyanazine (technical grade material), hexazinone (technical grade material), linuron (technical grade material), terbuthylazine (technical grade material), and diuron formulated as Diuron 4L.
Treatment requirements were calculated based upon the rates being tested, the concentration of active ingredient or acid equivalent in the formulation, and a 12 mL application volume at a rate of 187 L/ha.
For treatments comprised of formulated compounds, measured amounts of compounds were placed individually in 25 mL glass vials and diluted in a volume of 1.25% (v/v) Agri-Dex® crop oil concentrate (COC) to obtain 12× stock solutions. […] Application solutions were prepared by adding an appropriate amount of each stock solution (e.g., 1 mL) and diluted to the appropriate final concentrations with the addition of 10 mL of an aqueous mixture of 1.25% (v/v) COC so that the final spray solutions contained 1.25% (v/v) COC.
For treatments comprised of technical compounds, weighed amounts can be placed individually in 25 mL glass vials and dissolved in a volume of 97:3 (v/v) acetone/DMSO to obtain 12× stock solutions. […] Application solutions can be prepared by adding an appropriate amount of each stock solution (e.g., 1 mL) and diluted to the appropriate final concentrations with the addition of 10 mL of an aqueous mixture of 1.5% (v/v) COC so that the final spray solutions contain 1.25% (v/v) COC. When technical materials are used, the concentrated stock solutions can be added to the spray solutions so that the final acetone and DMSO concentrations of the application solutions are 16.2% and 0.5%, respectively.
For treatments comprised of formulated and technical compounds, weighed amounts of the technical materials can be placed individually in 25 mL glass vials and dissolved in a volume of 97:3 (v/v) acetone/DMSO to obtain 12× stock solutions, and measured amounts of the formulated compounds can be placed individually in 25 mL glass vials and diluted in a volume of 1.5% (v/v) COC or water to obtain 12× stock solutions. […] Application solutions can be prepared by adding an appropriate amount of each stock solution (e.g., 1 mL) and diluted to the appropriate final concentrations with the addition of an appropriate amount of an aqueous mixture of 1.5% (v/v) COC so that the final spray solutions contain 1.25% (v/v) COC. As required, additional water and/or 97:3 (v/v) acetone/DMSO can be added to individual application solutions so that the final acetone and DMSO concentrations of the application solutions being compared are 8.1% and 0.25%, respectively.
All stock solutions and applications solutions were visually inspected for compound compatibility prior to application. Spray solutions were applied to the soil with an overhead Mandel track sprayer equipped with a 8002E nozzles calibrated to deliver 187 L/ha over an application area of 0.503 m^2 at a spray height of 18 inches (46 cm) above average pot height. […]

COc1c(Cl)ccc(-c2nc(C(=O)OCc3ccccc3)c(Cl)c(N)c2F)c1F [Compound A Benzyl Ester, benzyl ester of 4-amino-3-chloro-5-fluoro-6-(4-chloro-2-fluoro-3-methoxy-phenyl)pyridine-2-carboxylic acid]
Visual Weed Control (%)-21 DAA LAMPU Obs ([1]; Compound A Benzyl Ester 2.5 g ai/ha): 80% | Visual Weed Control (%)-21 DAA LAMPU Obs ([1]; Compound A Benzyl Ester 2.5 g ai/ha, Table 22): 80% | Visual Weed Control (%)-21 DAA LAMPU Obs ([1]; Compound A Benzyl Ester 5 g ai/ha): 86% | Visual Weed Control (%)-21 DAA LAMPU Obs ([1]; Compound A Benzyl Ester 5 g ai/ha, Table 22): 86% | Visual Weed Control (%)-21 DAA LAMPU Obs ([1]; Compound A Benzyl Ester 10 g ai/ha): 94% | Visual Weed Control (%)-21 DAA LAMPU Obs ([1]; Compound A Benzyl Ester 10 g ai/ha, Table 22): 94% | Visual Weed Control (%) - 27 DAA BRAPP Obs ([2]; Compound A Benzyl Ester 16 g ae/ha, Table 28): 0% | Visual Weed Control (%)-28 DAA BRAPP Obs ([2]; Compound A Benzyl Ester 16 g ae/ha): 0% | Visual Weed Control (%) - 27 DAA BRAPP Obs ([2]; Compound A Benzyl Ester 32 g ae/ha, Table 27): 0% | Visual Weed Control (%) - 27 DAA BRAPP Obs ([2]; Compound A Benzyl Ester 32 g ae/ha, Table 28): 0% | Visual Weed Control (%)-28 DAA BRAPP Obs ([2]; Compound A Benzyl Ester 32 g ae/ha): 5%
